40 compounds from publication PMC2654417 (Combinatorial chemistry & high throughput screening, 2008) can be followed below.

This assay deals with T1, glucocorticoid receptor (GR) (Homo sapiens, UniProt P04150).
T1 sequence (P04150 1-777): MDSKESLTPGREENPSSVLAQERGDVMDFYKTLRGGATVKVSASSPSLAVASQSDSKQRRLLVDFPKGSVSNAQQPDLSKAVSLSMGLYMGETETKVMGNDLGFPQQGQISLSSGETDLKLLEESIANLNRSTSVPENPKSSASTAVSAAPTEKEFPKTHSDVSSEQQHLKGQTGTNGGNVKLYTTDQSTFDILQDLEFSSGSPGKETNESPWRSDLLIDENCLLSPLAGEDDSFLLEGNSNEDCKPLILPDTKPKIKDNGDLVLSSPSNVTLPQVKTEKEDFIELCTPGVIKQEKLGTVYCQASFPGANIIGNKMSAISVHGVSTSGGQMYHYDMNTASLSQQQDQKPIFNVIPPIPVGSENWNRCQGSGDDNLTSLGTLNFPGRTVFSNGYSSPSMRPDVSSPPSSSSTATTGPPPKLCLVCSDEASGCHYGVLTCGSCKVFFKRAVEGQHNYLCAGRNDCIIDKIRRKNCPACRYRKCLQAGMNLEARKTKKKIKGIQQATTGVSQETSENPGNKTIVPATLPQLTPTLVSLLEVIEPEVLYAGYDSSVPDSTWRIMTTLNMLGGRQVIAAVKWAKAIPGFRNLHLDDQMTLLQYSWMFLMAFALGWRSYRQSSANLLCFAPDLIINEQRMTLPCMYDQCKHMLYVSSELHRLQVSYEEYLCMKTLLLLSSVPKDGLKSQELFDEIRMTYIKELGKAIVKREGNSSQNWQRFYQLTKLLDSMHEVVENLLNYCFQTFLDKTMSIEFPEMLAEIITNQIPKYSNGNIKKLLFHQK
The assay can be described thus: GR-EFC nuclear translocation assay. The note with it: for qHTS Hill Slope: Hill slope of the qHTS curve fit; for qHTS Max Activity: maximal activity of the qHTS curve, inactive threshold […] (3σ); for log qEC50: log10 of qEC50 in M, printed as negative values. The format is cell-based.

Setting [1] is: read-out: qEC50, qHTS curve fit, class 4 values are fit defaults.
[2] abbreviates: class 4 values are fit defaults.

Read-outs that look alike come from different tables or passages of the source. A value given as a limit tells only on which side of the number the result lay.

As to `C[C@]12CC[C@@H]3C(=CCc4cc(O)ccc43)[C@@H]1CCC2=O` [NCGC00016451-01], the “qHTS Curve Class” value is 4 (inactive, where activity was below 28.6% (3σ for the present assay)). In addition, the EC50 (read-out: qEC50) was over 9 µM.

As for `CC(=O)O[C@H]1CC[C@@]2(C)[C@@H](CC[C@@]3(C)[C@H]2C(=O)C=C2[C@H]4C[C@](C)(C(=O)OCCN5CCCCC5)CC[C@]4(C)CC[C@@]23C)C1(C)C` [NCGC00017165-01], the “qHTS Curve Class” value was 4 (inactive, where activity was below 28.6% (3σ for the present assay)). Further, where the note is “read-out: qEC50”, the EC50 was over 9 µM.

Regarding `C[C@H]1[C@H](C)CC[C@@]2(C(=O)O)CC[C@]3(C)C(=CC[C@H]4[C@@]5(C)C[C@@H](O)[C@H](O)[C@@](C)(CO)[C@@H]5CC[C@@]43C)[C@@H]12` [NCGC00017359-01], the “qHTS Curve Class” value is 4 (inactive, where activity was below 28.6% (3σ for the present assay)). Further, the EC50 (read-out: qEC50) is over 9 µM.

Take `C#C[C@@]1(O)CC[C@@H]2[C@@H]3CCC4=CC(=O)CC[C@@H]4[C@H]3CC[C@]21C` [NCGC00016303-01]: the “qHTS Curve Class” value was 4 (inactive, where activity was below 28.6% (3σ for the present assay)).

For the compound `CCC[C@@H]1CC2=CC(=O)CC[C@]2(C)[C@@H]2CC[C@@]3(C)[C@H](CC[C@]3(O)CCC(=O)O)[C@H]12` [NCGC00025253-01], the EC50 under setting [1] is over 9 µM.

`CC(=O)[C@@H]1CC[C@H]2[C@H]3CC[C@H]4C[C@@H](O)CC[C@]4(C)[C@@H]3CC[C@]12C` [NCGC00015853-01]: the EC50 under setting [1] was over 9 µM.

For the compound `C[C@H](CCC(=O)O)[C@H]1CC[C@@H]2[C@H]3CC[C@H]4C[C@@H](O)CC[C@@]4(C)[C@H]3CC[C@]21C` [NCGC00016445-01], under setting [1], the EC50 is over 9 µM.

For `CC(=O)CC(=O)[C@@]1(O)CC[C@@H]2[C@@H]3C=C(C)C4=CC(=O)CC[C@@H]4[C@H]3CC[C@]21C` [NCGC00016884-01], the “qHTS Hill Slope” value was found to be 0.57 and the “qHTS Max Activity” value is 15.6.

In the case of `C[C@H]1CC[C@]2(NC1)O[C@@H]1C[C@@H]3[C@@H]4CC=C5C[C@H](O)CC[C@@]5(C)[C@H]4CC[C@@]3(C)[C@H]1[C@@H]2C` [NCGC00017170-01], under setting [1], the EC50 is over 9 µM.

For the compound `C[C@@]12CC[C@@H]3c4ccc(O)cc4C[C@H](CCCCCCCCC[S+]([O-])CCCC(F)(F)C(F)(F)F)[C@H]3[C@@H]1CC[C@@H]2O` (stereo partly shown) [NCGC00024964-01], the EC50 under setting [1] is over 9 µM.

For `CC(=O)O[C@@H]1CC[C@]2(C)[C@H]3CC[C@]4(C)[C@H](C[C@H]5CCCC[C@@]54C(C)=O)[C@@H]3CC(=O)[C@@]2(O)C1` [NCGC00017282-01], the EC50 under setting [1] was over 9 µM.

As for `CC(=O)O[C@H]1C[C@H]2CC[C@@H]3[C@@H](CC[C@]4(C)[C@H](OC(C)=O)[C@H]([N+]5(C)CCCCC5)C[C@@H]34)[C@]2(C)C[C@H]1[N+]1(C)CCCCC1` [NCGC00016716-01], the EC50 under setting [1] was over 9 µM.

With `CC(C)CCC(=O)O.C[C@@]12CCC(=O)C[C@@H]1CC(=O)[C@H]1[C@H]3CCC[C@]3(C)C(=O)C[C@@H]12` [NCGC00017016-01], the “qHTS Curve Class” value was 4 (inactive, where activity was below 28.6% (3σ for the present assay)). Besides, the EC50 (read-out: qEC50) was over 9 µM.

Consider `C[C@@]12CC[C@@H]3c4ccc(O)cc4CC[C@H]3[C@H]1C[C@@H](O)[C@H]2O` [NCGC00016217-01], for which the EC50 under setting [1] is over 9 µM.

As for `C[C@]12CC[C@@H]3c4ccc(O)cc4CC[C@H]3[C@@H]1CC[C@@H]2OC(=O)CCC1CCCC1` [NCGC00013034-01], under setting [1], the EC50 was over 9 µM.

Consider `COc1ccc2c(c1)CC[C@H]1[C@H]2CC[C@]2(C)[C@H](NCCCCCCN3C(=O)C=CC3=O)CC[C@@H]12` [NCGC00016078-01], for which the EC50 under setting [1] was over 9 µM.

For the compound `C[C@@]12CC[C@@H]3c4ccc(OS(=O)(=O)O)cc4CC[C@H]3[C@H]1CCC2=O` [NCGC00016682-01], the EC50 under setting [1] is over 9 µM.

Consider `CC(=O)OCC(=O)[C@H]1CC[C@H]2[C@@H]3CC[C@H]4C[C@H](O)CC[C@]4(C)[C@H]3C(=O)C[C@]12C` [NCGC00016783-01], for which the EC50 under setting [1] was over 9 µM.

In the case of `COc1cc2c(cc1O)CCC1C2CC[C@@]2(C)C1CC[C@@H]2O` (stereo partly shown) [NCGC00025300-01], the EC50 under setting [1] is over 9 µM.

With `C#C[C@]1(O)CC[C@H]2[C@H]3CCC4=Cc5oncc5C[C@]4(C)[C@@H]3CC[C@]21C` [NCGC00024732-01], the “qHTS Curve Class” value is 4 (inactive, where activity was below 28.6% (3σ for the present assay)). The EC50 (read-out: qEC50) is over 9 µM.

In the case of `CC(=O)OCC(=O)[C@@]12OC(C)(C)O[C@@H]1C[C@H]1[C@@H]3C[C@H](F)C4=CC(=O)C=C[C@]4(C)[C@@]3(F)[C@@H](O)C[C@@]12C` [NCGC00016436-01], the “qHTS Max Activity” value was 47.0. In addition, the “log qEC50” value under setting [2] is on record as −7.893. Under setting [1], the EC50 was 0.0128 µM.

With `CCOC(=O)O[C@]1(C(=O)COC(=O)CC)CC[C@H]2[C@@H]3CCC4=CC(=O)C=C[C@]4(C)[C@H]3[C@@H](O)C[C@@]21C` [NCGC00016926-01], the “qHTS Hill Slope” value is on record as 0.96 and the “qHTS Max Activity” value is reported as 30.2. Besides, the “log qEC50” value under setting [2] is −8.025. Under setting [1], the EC50 came to 0.00944 µM.

In the case of `C[C@@]12CCC(=O)C=C1CC[C@@H]1[C@@H]2[C@H](O)C[C@]2(C)[C@@H]1CC[C@]2(O)C(=O)CO` [NCGC00016215-01], the “qHTS Hill Slope” value is given as 0.70 and the “qHTS Max Activity” value amounted to 60.7.

On to `CC(=O)O[C@@H]1[C@H]([N+]2(C)CCCCC2)C[C@@H]2[C@@H]3CC[C@@H]4C[C@@H](OC(C)=O)[C@H]([N+]5(C)CCCCC5)C[C@@]4(C)[C@H]3CC[C@]21C` [NCGC00015804-01], for which the EC50 under setting [1] was over 9 µM.

`CC(=O)O[C@H]1CC[C@@]2(C)C(=CC[C@@H]3[C@@H]2CC[C@]2(C)C(=O)CC[C@@H]32)C1` [NCGC00016544-01]: under setting [1], the EC50 was over 9 µM.

For `COc1ccc2c(c1)CC[C@H]1[C@@H]2CC[C@@]2(C)[C@@H](NCCCCCCN3C(=O)C=CC3=O)CC[C@@H]12` [NCGC00025091-01], the EC50 under setting [1] was over 9 µM.

On to `C[C@]12CC[C@H](O)CC1=CC[C@@H]1[C@H]2CC[C@]2(C)C(=O)CC[C@H]12` [NCGC00015341-01], for which the EC50 under setting [1] was over 9 µM.

Consider `CC(=O)O[C@@H]1C[C@]2(C)[C@H](C[C@@H](O)[C@H]3[C@@]4(C)CC[C@@H](O)[C@@H](C)[C@@H]4CC[C@@]32C)/C1=C(\CCC=C(C)C)C(=O)[O-].[Na+]` [NCGC00016148-01], for which the “qHTS Curve Class” value was 4 (inactive, where activity was below 28.6% (3σ for the present assay)). The EC50 (read-out: qEC50) is over 9 µM.

`C[C@@H]1C[C@@H]2[C@H]3CCC4=CC(=O)C=C[C@]4(C)[C@]3(Cl)[C@@H](O)C[C@@]2(C)[C@@]1(O)C(=O)CO` [NCGC00015136-01]: the “qHTS Hill Slope” value came to 0.67 and the “qHTS Max Activity” value was 105.1.

Take `C[C@@]12CC[C@H]3[C@@H](CCC4=C(O)C(=O)CC[C@]43C)[C@H]1CCC2=O` [NCGC00015070-01]: the EC50 under setting [1] was over 9 µM.

Compound `CC(=O)C1(O)CCC2C3CCC4=CC(=O)CCC4(C)C3CCC21C` (stereo not drawn) [17α-hydroxyprogesterone, reference compound] yielded an EC50 of 2.87 µM.

Regarding `CCC(=O)O[C@]1(C(=O)SCF)[C@H](C)C[C@H]2[C@@H]3C[C@H](F)C4=CC(=O)C=C[C@]4(C)[C@@]3(F)[C@@H](O)C[C@@]21C` [NCGC00016943-01], the “qHTS Hill Slope” value is given as 1.50 and the “qHTS Max Activity” value was found to be 115.3.

As for `C[C@]12CC[C@H]3c4ccc(OC[C@H]5CO5)cc4CC[C@H]3[C@H]1CC[C@@H]2O` [NCGC00017797-01], under setting [1], the EC50 is over 9 µM.

For `C[C@@]12C=CC(=O)C=C1CC[C@@H]1C2=CC[C@]2(C)[C@@H]1CC[C@H]2C(=O)CN1CCN(c2cc(N3CCCC3)nc(N3CCCC3)n2)CC1` [NCGC00016076-01], the “qHTS Curve Class” value was 4 (inactive, where activity was below 28.6% (3σ for the present assay)). In addition, the EC50 (read-out: qEC50) is over 9 µM.

With `CCC(=O)O[C@H]1CC[C@H]2[C@@H]3CCC4=CC(=O)CC[C@]4(C)[C@H]3CC[C@]12C` [NCGC00016254-01], the EC50 under setting [1] is over 9 µM.

Consider `C[C@H]1C[C@@H]2[C@H]([C@@H](O)C[C@@]3(C)[C@H]2CC[C@]3(O)C(=O)CO)[C@@]2(C)C=CC(=O)C=C12` [NCGC00016330-01], for which the “qHTS Hill Slope” value is listed as 0.98 and the “qHTS Max Activity” value was determined as 63.5.

`CC(=O)[C@H]1CC[C@H]2[C@@H]3C=CC4=CC(=O)CC[C@@]4(C)[C@@H]3CC[C@]12C` [NCGC00016413-01]: the “qHTS Curve Class” value is 4 (inactive, where activity was below 28.6% (3σ for the present assay)). Further, under “read-out: qEC50”, the EC50 was over 9 µM.

As for `C[C@@]12CC[C@H]3[C@@H](CC=C4C[C@H](OS(=O)(=O)O)CC[C@]43C)[C@H]1CCC2=O` [NCGC00016143-01], the EC50 under setting [1] was over 9 µM.

With `COc1cc2c(cc1O)CC[C@@H]1[C@@H]2CC[C@@]2(C)[C@H](O)CC[C@H]12` [NCGC00015690-01], the EC50 under setting [1] was over 9 µM.

Regarding `C[C@@]12CC[C@H](O)C[C@@H]1CC[C@H]1[C@@H]2C[C@@H](O)[C@]2(C)[C@@H](C3=CC(=O)OC3)CC[C@]12O` [NCGC00016591-01], the EC50 under setting [1] was over 9 µM.
